Data taken from PMC4823711, “Allosteric Partial Inhibition of Monomeric Proteases. Sulfated Coumarins Induce Regulation, not just Inhibition, of Thrombin” (Scientific Reports, 2016).
Like-named read-outs stand apart in the source and are kept apart here.

Assays:
Type in all cases: biochemical
thrombin mutant K236A = molecular target: T1, thrombin mutant K236A (Homo sapiens, UniProt P00734, K611A); test: Inhibition of thrombin mutant K236A; settings: pH 7.4, 25 °C
T1 construct: a group of thrombin mutants containing replacement of either Arg or Lys present in exosite 2 to Ala
Method: (§1) Chromogenic substrate hydrolysis assay was used to measure potency of inhibition, as previously reported. The assay was performed using Flexstation III (Molecular Devices, Sunnyvale, CA) by monitoring substrate hydrolysis at 405 nm. For thrombin and its mutants, 180 μL of buffer (20 mM Tris-HCl, 100 mM NaCl, 2.5 mM CaCl2, 0.1% (polyethylene glycol) PEG 8000, pH 7.4) was added to each well followed by 5 μL of 240 nM thrombin and 10 μL of sulfated coumarin in DMSO to give 0.002 to 250 μM final concentration (or 10 μL of DMSO alone). After incubation for 10 min at 25 °C, 5 μL of 2 mM Spectrozyme TH was added to each well simultaneously and allowed to react for 60 seconds at 25 °C while simultaneously monitoring the reaction to obtain the rate of increase in A405. Identical experimental conditions were used for reactions in the presence of antithrombin, except for 100 nM of antithrombin added prior to the addition of the substrate.

thrombin mutant R97A = molecular target: T2, thrombin mutant R97A (Homo sapiens, UniProt P00734, R456A); test: Inhibition of thrombin mutant R97A; settings: pH 7.4, 25 °C
T2 construct: a group of thrombin mutants containing replacement of either Arg or Lys present in exosite 2 to Ala
Method: as §1

thrombin [1] = molecular target: T3, thrombin (Homo sapiens, UniProt P00734); test: Thrombin inhibition in the presence of exosite 1 (HirP) and exosite 2 (UFH) ligands; design: 6 nM plasma α-thrombin; purchased Haematologic Technologies (Essex Junction, VT)
Method: Thrombin inhibition by 3g was examined in the presence of either HirP (exosite 1 ligand) or UFH (exosite 2 ligand). 3g was prepared in DMSO (0.010–50 μM) and thrombin (4–8 nM) were incubated at 25 °C with HirP (0–187 nM) or UFH (0–22.8 μM) in buffer (20 mM Tris-HCl, 100 mM NaCl, 2.5 mM CaCl2, 0.1% PEG 8000, pH 7.4). After 10 min, thrombin activity was measured using Spectrozyme TH hydrolysis assay, as described above. The slopes obtained (in triplicate) were fitted using equation 1 to calculate IC50,app, ∆Y, and HS. The IC50,app at each concentration of the competitor was also calculated using the Dixon-Webb relationship (equation 3) from the known affinities (Kcomp) of the competitor.

thrombin [2] = molecular target: T3, thrombin; test: Antithrombin inactivation of thrombin in the presence of sulfated coumarin; design: 6 nM plasma α-thrombin; purchased Haematologic Technologies (Essex Junction, VT); host or cells: human plasma
Method: The effect of 3g on the reaction of thrombin (or factor Xa) with antithrombin was studied under pseudo-first order conditions such that [AT]0 ≫ [T]0. A fixed concentration of 6 nM plasma α-thrombin in 20 mM Tris-HCl buffer, pH 7.2, containing 100 mM NaCl, 2.5 mM CaCl2 and 0.1% PEG 8000 at 25 °C was incubated for 128 min with final concentrations of 0, 75, 225, or 675 nM of 3g following which a fixed concentration of 100 nM of antithrombin was added and the reaction allowed to proceed. […] The initial rate of hydrolysis of the Spectrozymes were monitored from the linear increase in A405. The fractional residual enzyme activity at each time point was calculated from the slope, i.e., thrombin activity, measured at the start of the experiment and fitted by the standard exponential decay equation 6 to calculate the observed pseudo-first order rate constant, kOBS, at each concentration of 3g. The intrinsic second-order rate constant of antithrombin inhibition of thrombin (kINT) was calculated using equation 7 and plotted against the concentration of thrombin–3g complex, obtained from quadratic equation 8, to derive the kINT of antithrombin inhibition of thrombin–3g complex.

- HS (thrombin mutant K236A): 2.6
- IC50 (thrombin mutant K236A): 525 ± 70 nM
- ΔY (thrombin mutant K236A): 64 ± 4%
- HS (thrombin mutant R97A): 2.4
- IC50 (thrombin mutant R97A): 380 ± 70 nM
- ΔY (thrombin mutant R97A): 41 ± 4%
- IC50 (thrombin [1]; [HirP] 0 nM, Dixon-Webb relationship, read-out: IC50,predicted): 240 nM
- HS (thrombin [1]; [HirP] 0 nM, pH 7.4, 25 °C): 3.3
- ΔY (thrombin [1]; [HirP] 0 nM, pH 7.4, 25 °C): 52 ± 2%
- IC50 (thrombin [1]; [HirP] 0 nM, pH 7.4, 25 °C, read-out: IC50,app): 220 ± 20 nM
- IC50 (thrombin [1]; [HirP] 25 nM, Dixon-Webb relationship, read-out: IC50,predicted): 450 nM
- HS (thrombin [1]; [HirP] 25 nM, pH 7.4, 25 °C): 2.4
- ΔY (thrombin [1]; [HirP] 25 nM, pH 7.4, 25 °C): 58 ± 1%
- IC50 (thrombin [1]; [HirP] 25 nM, pH 7.4, 25 °C, read-out: IC50,app): 330 ± 20 nM
- IC50 (thrombin [1]; [HirP] 187 nM, Dixon-Webb relationship, read-out: IC50,predicted): 670 nM
- HS (thrombin [1]; [HirP] 187 nM, pH 7.4, 25 °C): 2.0
- ΔY (thrombin [1]; [HirP] 187 nM, pH 7.4, 25 °C): 59 ± 6%
- IC50 (thrombin [1]; [HirP] 187 nM, pH 7.4, 25 °C, read-out: IC50,app): 330 ± 60 nM
- IC50 (thrombin [1]; [UFH] 0 μM, Dixon-Webb relationship, read-out: IC50,predicted): 170 nM
- HS (thrombin [1]; [UFH] 0 μM, pH 7.4, 25 °C): 1.3
- ΔY (thrombin [1]; [UFH] 0 μM, pH 7.4, 25 °C): 56 ± 3%
- IC50 (thrombin [1]; [UFH] 0 μM, pH 7.4, 25 °C, read-out: IC50,app): 170 ± 20 nM
- IC50 (thrombin [1]; [UFH] 11.4 μM, Dixon-Webb relationship, read-out: IC50,predicted): 290 nM
- HS (thrombin [1]; [UFH] 11.4 μM, pH 7.4, 25 °C): 1.7
- ΔY (thrombin [1]; [UFH] 11.4 μM, pH 7.4, 25 °C): 66 ± 5%
- IC50 (thrombin [1]; [UFH] 11.4 μM, pH 7.4, 25 °C, read-out: IC50,app): 290 ± 30 nM
- IC50 (thrombin [1]; [UFH] 22.8 μM, Dixon-Webb relationship, read-out: IC50,predicted): 450 nM
- HS (thrombin [1]; [UFH] 22.8 μM, pH 7.4, 25 °C): 3.7
- ΔY (thrombin [1]; [UFH] 22.8 μM, pH 7.4, 25 °C): 59 ± 3%
- IC50 (thrombin [1]; [UFH] 22.8 μM, pH 7.4, 25 °C, read-out: IC50,app): 580 ± 30 nM
- increase of IC50 in the presence of HirP (thrombin [1]; exosite 1 ligand HirP): 50%
- kINT, second order rate constant of antithrombin inhibition of thrombin–3g complex (thrombin [2]; at 100% saturation of thrombin, pH 7.2, 25 °C, thrombin alone 2476 ± 228): 821 ± 198 M⁻¹ s⁻¹
- proteolytic activity of thrombin–3g complex (thrombin [2]; kINT in the absence of 3g equated with 100%): 33 ± 12%
SMILES: O=c1oc2cc(OCCCCn3cc(COc4ccc(-c5c(-c6ccccc6)c6cc(Cl)cc(Cl)c6oc5=O)cc4)nn3)ccc2c(-c2ccccc2)c1-c1ccc(OS(=O)(=O)O)cc1 [3g]
